Assay results reported in patent US7601752B2, “Pyrrolidine derivatives” (Hoffmann-La Roche Inc., priority 2005, dated 2009).

target: T1, human factor Xa (Homo sapiens, UniProt P00742); experiment: Chromogenic peptide substrate (S-2222) assay, inhibition of coagulation factor Xa; assay type: biochemical; conditions: apparent dissociation constant by Cheng-Prusoff from IC50; human factor Xa 3 nM, substrate S-2222, HNPT buffer pH 7.8, room temperature
T1 construct: purchased Enzyme Research Laboratories
T1 sequence (P00742 235-488 limits assumed): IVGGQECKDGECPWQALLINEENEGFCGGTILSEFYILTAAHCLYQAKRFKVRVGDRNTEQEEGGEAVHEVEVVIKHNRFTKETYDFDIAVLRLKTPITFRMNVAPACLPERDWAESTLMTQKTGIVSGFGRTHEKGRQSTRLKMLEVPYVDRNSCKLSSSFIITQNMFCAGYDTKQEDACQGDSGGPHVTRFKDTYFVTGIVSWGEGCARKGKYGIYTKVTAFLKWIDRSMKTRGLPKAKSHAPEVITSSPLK
T1 sequence (P00742 41-179 partner limits assumed): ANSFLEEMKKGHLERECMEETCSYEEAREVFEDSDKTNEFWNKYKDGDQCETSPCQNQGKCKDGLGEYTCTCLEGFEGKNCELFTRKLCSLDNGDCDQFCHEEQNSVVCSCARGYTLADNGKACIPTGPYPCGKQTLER
Description: Factor Xa activity was measured spectrophotometrically in microtiter plates in a final volume of 150 μl using the following conditions: Inhibition of human factor Xa (Enzyme Research Laboratories) was tested at an enzyme concentration of 3 nM using the chromogenic substrate S-2222 (Chromogenix AB, Mölndal, Sweden) at […]. The reaction kinetics of the enzyme and the substrate were linear with both time and the enzyme concentration. The inhibitors were dissolved in DMSO and tested at various concentrations up to 100 μM. The inhibitors were diluted using HNPT buffer consisting of HEPES 100 mM, NaCl 140 mM, PEG 6000 0.1% and Tween 80 0.02%, pH 7.8. The cleavage of S-2222 by human factor Xa was followed at 405 nm for 5 minutes at room temperature. The velocity of the reaction was determined by the autoreader from the slope of the linear regression fit to 7 time points (1 minute). The initial velocity for each inhibitor concentration was determined by the slope of at least 4 time points in the linear phase by a linear regression fit […]. Apparent dissociation constants Ki were calculated according to Cheng and Prusoff [Cheng, Y. C.; Prusoff, W. H. Relationship between the inhibition constant (Ki) and the concentration of the inhibitor that causes 50 percent inhibition (IC50) of an enzyme reaction. Biochem. Pharmacol. 1973, 22, 3099-3108.] based on the IC50 and the respective Km, determined previously (Ki=IC50/(1+S/Km)). The Km for the substrate used was determined under the conditions of the test with at least 5 substrate concentrations ranging from 0.5 to 15 times Km. [Lottenberg R, Hall J A, Blinder M, Binder E P, Jackson C M., The action of thrombin on peptide p-nitroanilide substrates. Substrate selectivity and examination of hydrolysis under different reaction conditions. Biochim Biophys Acta. 1983 Feb. 15; 742(3):539-57]. According to Eadie [Eadie G. S. The inhibition of cholinesterase by physostigmine and prostigmine. J. Biol. Chem. 1942, 146, 85-93.], the Km for S-2222 amounted to 613 μM.

Point of comparison: `O=C(N[C@@H]1CN[C@H](C(=O)Nc2ccc(-n3ccccc3=O)cc2F)C1)c1ccc(Cl)s1` [Example 2, (2S,4S)-4-[(5-Chloro-thiophene-2-carbonyl)-amino]-pyrrolidine-2-carboxylic acid[2-fluoro-4-(2-oxo-2H-pyridin-1-yl)-phenyl]-amide trifluoro-acetate], Ki 0.023 µM. Against it:
- N#CCN1C[C@@H](NC(=O)c2ccc(Cl)s2)C[C@H]1C(=O)Nc1ccc(-n2ccccc2=O)cc1F [Example 6, (2S,4S)-4-[(5-Chloro-thiophene-2-carbonyl)-amino]-1-cyanomethyl-pyrrolidine-2-carboxylic acid[2-fluoro-4-(2-oxo-2H-pyridin-1-yl)-phenyl]-amide] — 2-fold higher, 0.046 µM
- O=C(N[C@H]1CC(C(=O)Nc2ccc(-n3ccccc3=O)cc2F)N(CCC(F)(F)F)C1)c1ccc(Cl)s1 (mixture of isomers) [Example 14, (S)-4-[(5-Chloro-thiophene-2-carbonyl)-amino]-1-(3,3,3-trifluoro-propyl)-pyrrolidine-2-carboxylic acid[2-fluoro-4-(2-oxo-2H-pyridin-1-yl)-phenyl]-amide] — 1.8-fold higher, 0.042 µM
- CC(C)(C)OC(=O)N1C[C@@H](NC(=O)c2ccc(Cl)s2)C[C@H]1C(=O)Nc1ccc(-n2ccncc2=O)cc1F [Example 21, (2S,4S)-4-[(5-Chloro-thiophene-2-carbonyl)-amino]-2-[2-fluoro-4-(2-oxo-2H-pyrazin-1-yl)-phenylcarbamoyl]-pyrrolidine-1-carboxylic acid tert-butyl ester] — 2.8-fold higher, 0.065 µM
